In data set [1] the test system is alpha coronavirus 229E (HCoV-229E). In words: inhibition of virus-induced CPE, CoV229E in MRC-5 cells (XTT). The class given is cell-based. How it is done: The antiviral compound Remdesivir served as positive control.
Lefamulin (as acetate) was evaluated using different treatment conditions of 4 h, 1 h or 0 h incubation prior to virus addition and addition 1 h after infection For this particular set of experiments, coronavirus was diluted 1:200 in assay medium and added at 100 μL/well to achieve approximately 90% cell killing in the untreated virus control wells (MOI of 0.001).

The next data set deals with HEp2 cells. The data set is described as follows: cell viability of uninfected HEp2 cells (XTT). The settings on record: Example 8. In general terms: Formazan colour is commonly taken as a measure of viable cells.
In data set [2] the test system is human respiratory syncytial virus (strain RSVA2). The data set is described as follows: inhibition of virus-induced CPE, RSVA2 in HEp2 cells (XTT).
A short description of data set [3]: in vitro. As to conditions: human, TC50.
In data set [4] the test system is human respiratory syncytial virus (strain RSVA2). As to conditions: Example 8.
The next data set concerns MRC-5 cells. The settings on record: Example 6.
Data set [5] can be described thus: in vitro. The settings on record: human.
Data set [6] deals with vesicular stomatitis virus (VSV). The settings on record: cited from earlier work.
Data set [7] deals with herpes simplex type 1 (HSV-1) virus. As to conditions: cited from earlier work.
A further data set deals with polio virus. The settings on record: cited from earlier work.
The test system of data set [8] is influenza A virus strain (PR8). As to conditions: cited from earlier work.
The subject of data set [9] is influenza A virus, porcine reproductive and respiratory syndrome virus (PRRSV) type 1 and 2. The settings on record: WO 2009/106839; compared to Tiamulin 0.1-10 μg/mL; cited from earlier work.
Data set [10] concerns mice challenged with lipopolysaccharide (LPS). In words: LPS induced lung neutrophilia model, BALF cell counts (Example 2). As to conditions: 10, 30 and 100 mg/kg SC; 4 h post LPS.
In data set [11] the test system is TNF-α, IL-6, IL-1β, GM-CSF, CXCL1, CXCL2, CCL2, MMP9 in lung homogenate. In words: LPS induced lung neutrophilia model, marker concentrations in lung homogenate (Example 2).
In data set [12] the test system is lipopolysaccharide (LPS)-induced ALI. As to conditions: cited from earlier work.
Data set [13] in a line: in vitro. The settings on record: dog.
For data set [14], the system named is influenza A/Puerto Rico/8/34 (H1N1). The class given is in vivo, BALB/c mice.
Data set [15] relates to mice challenged with lipopolysaccharide (LPS). The data set is described as follows: modified LPS induced lung neutrophilia model, BALF cell counts 24 h post LPS (Example 4).
Data set [16] can be described thus: cell viability of uninfected Huh7 cells. The settings on record: human, TC50, Example 13 (Zika assay).
The subject of data set [17] is human rhinovirus strain HRV16 strain 11757. The data set is described as follows: inhibition of virus-induced CPE, human rhinovirus in H1-HeLa cells. It counts as cell-based. The settings on record: Human rhinovirus sp., 4 hour pretreatment. How it is done: Cell viability determination as well as EC50 and TC50 calculations were performed as described in Examples 6 and 8.

Data set [18] in a line: in vitro. As to conditions: human. This is another data set of the same source.
The test system of data set [19] is respiratory syncytial virus (RSV ALONG). In words: inhibition of virus-induced CPE, RSV ALONG in HEp2 cells. As to conditions: Example 10; investigated strain of RSV A.
Data set [20] concerns respiratory syncytial virus (RSV B18537). In words: inhibition of virus-induced CPE, RSV B18537 in HEp2 cells. As to conditions: Example 10; investigated strain of RSV B.
Where [21] appears, read: lower doses of 10 and 30 mg/kg SC.
[22] abbreviates: same doses (10, 30, 100 mg/kg SC).

Where two headings read alike, the source gives them in different places.

Broadly, the viability is the share of living cells, or the viability signal relative to a control. Low values mean a greater loss of cells, high ones better survival. As to `C=C[C@]1(C)C[C@@H](OC(=O)CSCCN(CC)CC)[C@]2(C)[C@H](C)CC[C@]3(CCC(=O)[C@H]32)[C@@H](C)[C@@H]1O` [Tiamulin, reference compound], the “reduction of viral CPE” value in data set [1] (10 µM) was determined as 10.53%; in data set [1] (50 μM) it was 81.68%; in data set [4] (10 μM), 16.76%; in data set [4] (50 μM) it was 43.28%. Moreover, the EC50 in data set [1] (Example 6, MRC-5 cells, 4 h incubation prior to virus, MOI 0.001, 6 days post-infection, Lefamulin as acetate, Tiamulin as fumarate, read-out: EC50) was 24400 nM; in [2] (human respiratory syncytial virus, HEp-2, Example 8, HEp2 cells, 4 h incubation prior to virus, MOI 0.001, 6 days post-infection, Lefamulin as acetate, Tiamulin as fumarate), greater than 67900 nM. For the same molecule, the viability was 84% in the data set with HEp2 cells (10 μM) and 70.0% with HEp2 cells (50 μM). Moreover, the CC50 at 6 days in “in vitro [3]” was determined as 67900 nM; in “in vitro [5]”, 62900 nM. Moreover, the results for the “cytotoxic effect on the viability of the cell control” value in the data set on MRC-5 cells (10 μM) and in the data set on MRC-5 cells (50 μM) were “no cytotoxic effect” and “cytotoxic effect”, respectively.

Turning to `C=C[C@]1(C)C[C@@H](OC(=O)CO)[C@]2(C)[C@H](C)CC[C@]3(CCC(=O)[C@H]32)[C@@H](C)[C@@H]1O` [Pleuromutilin], the “activity against vesicular stomatitis virus (VSV)” value in data set [6] is given as “activity”. For the same molecule, in data set [7], the “concentration that conferred a 50% protection of the cytopathic effect induced by HSV-1 (CPE50)” value is 15 µg/mL. Further, in [7] (read-out: concentration that conferred a 50% protection of the cytopathic effect induced by HSV-1 (CPE50)), the EC50 is 40000 nM. For the same molecule, the “antiviral activity for polio virus” value with polio virus was “did not show antiviral activity”. In addition, the “concentration with antiviral activity” value in data set [8] was 2 mg/mL.

For the molecule `C=C[C@]1(C)C[C@@H](OC(=O)CSC(C)(C)CNC(=O)[C@H](N)C(C)C)[C@]2(C)[C@H](C)CC[C@]3(CCC(=O)[C@H]32)[C@@H](C)[C@@H]1O` [Valnemulin, reference compound], in data set [9], the antiviral activity result was “did not exhibit antiviral activity”. In data set [10], the “lymphocyte cell counts in BALF” value is “not significantly affected” and the “macrophage cell counts in BALF” value is “not significantly affected”. Also, in data set [11] (100 mg/kg SC), the “reduction of MMP9 levels in lung homogenate” value turned out to be 50%. For the same molecule, in data set [11] (all doses tested (10, 30, 100 mg/kg SC)), the “GM-CSF in lung homogenate” value is on record as “showed a reduction of GM-CSF levels, but was less active than Lefamulin”. In addition, the “LPS-induced CCL2 increase in the lung homogenate” value in data set [11] (all investigated doses (10, 30, 100 mg/kg SC), Valnemulin particularly at 10 and 30 mg/kg) was “less active”. Also, in data set [11] (setting [21]), the “effect on CXCL1 compared to Lefamulin” value is reported as “less effect” and the “effect on CXCL2 compared to Lefamulin” value is reported as “less effect”. Moreover, in [11] (setting [22]), the “IL-6 level in lung homogenate, compared with Lefamulin” value is listed as “less active” and the “TNF-α level in lung homogenate, compared with Lefamulin” value is given as “less active”. Moreover, the “concentration of pro-inflammatory cytokines TNF-α, IL-6 and IL-1ß in bronchoalveolar lavage fluid” value in data set [12] (in vivo) is “attenuate”. Moreover, in [12] (pre-administration), the “pulmonary wet-to-dry (W/D) ratio in the lung” value is listed as “significantly reduced”.

In “in vitro [13]”, `CCOC(=O)C1=C[C@@H](OC(CC)CC)[C@H](NC(C)=O)[C@@H](N)C1` [Oseltamivir, reference compound] gave a CC50 greater than 200000 nM. For the same molecule, in [14] (Lefamulin at both doses, Oseltamivir positive control, Day 3 and Day 6, vs vehicle treated control), the “lung viral titres (TCID50 on MDCK cells)” value is reported as “reduced”. In data set [14] (positive control treatment), the bodyweight loss result is “reduction” and the clinical scores result is “reduction”.

Take Lefamulin acetate: the “cell count in BALF” value in [15] (70 mg/kg single SC dose 30 min prior to IN LPS) is recorded as “reduction”.

In data set [16], `CC(C)OC(=O)[C@H](C)N[P@](=O)(OC[C@H]1O[C@@H](n2ccc(=O)[nH]c2=O)[C@](C)(F)[C@@H]1O)Oc1ccccc1` [Sofosbuvir, reference compound] registered a CC50 at 6 days greater than 10000 nM.

For the molecule `CCC(CC)COC(=O)[C@H](C)N[P@](=O)(OC[C@H]1O[C@@](C#N)(c2ccc3c(N)ncnn23)[C@H](O)[C@@H]1O)Oc1ccccc1` [Remdesivir, reference compound], the EC50 in [1] (Human coronavirus 229E, MRC5) stood at 110 nM. Besides, the CC50 in the data set “in vitro [5]” is greater than 5000 nM.

For `CCOC(=O)/C=C/[C@H](C[C@@H]1CCNC1=O)NC(=O)[C@@H](CC(=O)[C@@H](NC(=O)c1cc(C)on1)C(C)C)Cc1ccc(F)cc1` [Rupintrivir], the EC50 in data set [17] was 4.9 nM; in data set [17] (MOI 0.0005, Lefamulin as acetate), 4.9 nM. Also, the CC50 in the data set “in vitro [18]” was greater than 100 nM.

For `Cc1ccc(CCCO)c(NCc2ccc3nc(NCCCN4CCOCC4)n(Cc4nc(C)ccc4O)c3c2)c1` [TMC353121], the EC50 was 0.01 nM in [19]; 0.6 nM in data set [2] (Example 8, HEp2 cells, 4 h incubation prior to virus, MOI 0.001, 6 days post-infection, Lefamulin as acetate, Tiamulin as fumarate); 0.04 nM in [2] (Example 9, MOI 0.0004); 0.3 nM in data set [2] (Example 9, MOI 0.0008); 0.2 nM in data set [2] (Example 9, MOI 0.001); 0.2 nM in [2] (Example 9, MOI 0.003). The EC50 in [20] is 0.01 nM.

With `C=C(CC(=O)[O-])C(=O)[O-].[Na+].[Na+]` [Sodium itaconate, reference compound], the BALF cell counts entry in data set [15] (55 mg/kg single SC dose 30 min prior to IN LPS) was “some reduction”.

Source of the values: patent US20230174472A1, “THERAPEUTIC USE OF PLEUROMUTILINS” (priority 2020, published 2023).
